Test results reported in paper PMC10683025, “Discovery of a Hydroxylamine-Based Brain-Penetrant EGFR Inhibitor for Metastatic Non-Small-Cell Lung Cancer” (Journal of Medicinal Chemistry, 2023).
pIC50, pKd: −log10 of the molar value.

Legend:
[1] = target: T1, BCR-ABLwt (Nonphos.) (Homo sapiens, UniProt P00519); assay: KINOMEScan KdELECT Kd determination; assay type: binding; conditions: read-out: Kinase Kd
T1 construct: purchased Eurofins DiscoverX (contract assay)
Description: (§1) In vitro kinase activity (inhibitor binding constants (Kd) and biochemical inhibition (IC50’s)) were assessed by Eurofins DiscoverX (Kd determinations) and Eurofins Cerep (biochemical IC50 determinations).

[2] = target: T2, BCR-ABLwt (Phos.) (Homo sapiens, UniProt P00519); assay: KINOMEScan KdELECT Kd determination; assay type: binding; conditions: read-out: Kinase Kd
T2 construct: purchased Eurofins DiscoverX (contract assay)
Description: as §1

[3] = target: T3, DRAK1 (Homo sapiens, UniProt Q9UEE5); assay: KINOMEScan KdELECT Kd determination; assay type: binding; conditions: read-out: Kinase Kd
T3 construct: purchased Eurofins DiscoverX (contract assay)
T3 sequence (Q9UEE5 1-414): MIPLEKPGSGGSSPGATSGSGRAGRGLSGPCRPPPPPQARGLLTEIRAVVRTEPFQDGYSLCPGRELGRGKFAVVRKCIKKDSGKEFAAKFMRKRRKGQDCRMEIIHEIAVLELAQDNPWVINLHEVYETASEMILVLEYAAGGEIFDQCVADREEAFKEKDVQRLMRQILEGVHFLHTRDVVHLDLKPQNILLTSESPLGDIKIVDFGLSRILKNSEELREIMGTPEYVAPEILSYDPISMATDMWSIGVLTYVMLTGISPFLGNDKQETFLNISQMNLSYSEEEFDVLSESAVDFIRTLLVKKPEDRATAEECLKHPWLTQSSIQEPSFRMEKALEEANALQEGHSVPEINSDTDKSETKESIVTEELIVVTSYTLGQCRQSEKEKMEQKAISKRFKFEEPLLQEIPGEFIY
Description: as §1

[4] = target: T4, ERBB2 (Homo sapiens, UniProt P04626); assay: KINOMEScan KdELECT Kd determination; assay type: binding; conditions: read-out: Kinase Kd
T4 construct: purchased Eurofins DiscoverX (contract assay)
Description: as §1

[5] = target: T5, LYN (Homo sapiens, UniProt P07948); assay: KINOMEScan KdELECT Kd determination; assay type: binding; conditions: read-out: Kinase Kd
T5 construct: purchased Eurofins DiscoverX (contract assay)
Description: as §1

[6] = Metabolic stability in hepatocytes; assay type: in vitro ADME, beagle dog; conditions: for Remaining Percentages: dog hepatocytes
Description: Hepatocyte stability was assessed in duplicate (n = 2) at a working cell density of 0.5 × 10^6 cells/mL with hepatocytes from human (BiolVT), Sprague-Dawley rat (BiolVT), cynomolgus monkey (RILD) or beagle dog (BiolVT). […] The in vitro half-life and intrinsic clearances were determined as previously described.[76]
In vitro half-life (in vitro t1/2) was determined from the slope value in [drawing 1] where k was determined by linear regression of the natural logarithm of the remaining percentage of the parent drug vs the incubation time curve.

[7] = target: T6, CYP3A4 (Homo sapiens, UniProt P08684); assay: CYP450 inhibition in human liver microsomes; assay type: in vitro ADME; conditions: midazolam
T6 construct: incubated with pooled human liver microsomes (0.5 mg/mL) (BD Gentest); tissue BD Gentest; host or cells: pooled human liver microsomes
Description: The activities tested were CYP1A2-mediated phenacetin O-demethylation, CYP2C19-mediated (S)-mephenyotin 4′-hydroxylation, CYP2C9-mediated diclofenac 4′-hydroxylation, CYP2D6-mediated dextromethorphan O-demethylation, and CYP3A4-mediated midazolam 1′-hydroxylation. […] The reactions were initiated by adding NADPH (1 mM final concentration) after a 5 min preincubation, and the assay was run in duplicate (n = 2). Samples were analyzed by ultra-performance liquid chromatography tandem mass spectrometry (UPLC-MS/MS).

[8] = In vitro metabolite identification; assay type: in vitro ADME; conditions: human hepatocytes, 10 μM
[9] = target: T7, ABL1(F317L)-nonphosphorylated (Homo sapiens, UniProt P00519, F317L); assay: KINOMEScan; assay type: binding; conditions: read-out: Percent Control
T7 construct: purchased Eurofins DiscoverX
Description: (§2) Percent control was mapped onto the kinome tree using TREEspot.

[10] = target: T8, ACVR2A (Homo sapiens, UniProt P27037); assay: KINOMEScan; assay type: binding; conditions: read-out: Percent Control
T8 construct: purchased Eurofins DiscoverX (KINOMEscan)
Description: as §2

[11] = target: T9, ACVRL1 (Homo sapiens, UniProt P37023); assay: KINOMEScan; assay type: binding; conditions: ACVRL1, 1 µM; read-out: Percent Control
T9 construct: purchased Eurofins DiscoverX (KINOMEscan)
Description: as §2

[12] = target: T10, ADCK3 (Homo sapiens, UniProt Q8NI60); assay: KINOMEScan; assay type: binding; conditions: ADCK3, 1 µM; read-out: Percent Control
T10 construct: purchased Eurofins DiscoverX (KINOMEscan)
Description: as §2

[13] = target: T11, AKT3 (Homo sapiens, UniProt Q9Y243); assay: KINOMEScan; assay type: binding; conditions: AKT3, 1 µM; read-out: Percent Control
T11 construct: purchased Eurofins DiscoverX (KINOMEscan)
Description: as §2

[14] = target: T12, AMPK-alpha1 (Homo sapiens, UniProt Q13131); assay: KINOMEScan; assay type: binding; conditions: AMPK-alpha1, 1 µM; read-out: Percent Control
T12 construct: purchased Eurofins DiscoverX (KINOMEscan)
Description: as §2

[15] = target: T13, ANKK1 (Homo sapiens, UniProt Q8NFD2); assay: KINOMEScan; assay type: binding; conditions: ANKK1, 1 µM; read-out: Percent Control
T13 construct: purchased Eurofins DiscoverX (KINOMEscan)
Description: as §2

[16] = target: T14, AURKA (Homo sapiens, UniProt O14965); assay: KINOMEScan; assay type: binding; conditions: read-out: Percent Control
T14 construct: purchased Eurofins DiscoverX (KINOMEscan)

[17] = target: T15, BMPR1A (Homo sapiens, UniProt P36894); assay: KINOMEScan; assay type: binding; conditions: read-out: Percent Control
T15 construct: purchased Eurofins DiscoverX (KINOMEscan)
Description: as §2

[18] = target: T16, BMPR1B (Homo sapiens, UniProt O00238); assay: KINOMEScan; assay type: binding; conditions: read-out: Percent Control
T16 construct: purchased Eurofins DiscoverX (KINOMEscan)
Description: as §2

[19] = target: T17, BRSK1 (Homo sapiens, UniProt Q8TDC3); assay: KINOMEScan; assay type: binding; conditions: BRSK1, 1 µM; read-out: Percent Control
T17 construct: purchased Eurofins DiscoverX (KINOMEscan)
Description: as §2

[20] = target: T18, BRSK2 (Homo sapiens, UniProt Q8IWQ3); assay: KINOMEScan; assay type: binding; conditions: BRSK2, 1 µM; read-out: Percent Control
T18 construct: purchased Eurofins DiscoverX (KINOMEscan)
Description: as §2

[21] = target: T19, WEE2 (Homo sapiens, UniProt P0C1S8); assay: KINOMEScan; assay type: binding; conditions: WEE2, 1 µM; read-out: Percent Control
T19 construct: purchased Eurofins DiscoverX
Description: as §2

[22] = target: T20, WNK2 (Homo sapiens, UniProt Q9Y3S1); assay: KINOMEScan; assay type: binding; conditions: WNK2, 1 µM; read-out: Percent Control
T20 construct: purchased Eurofins DiscoverX
Description: as §2

[23] = target: T21, WNK3 (Homo sapiens, UniProt Q9BYP7); assay: KINOMEScan; assay type: binding; conditions: WNK3, 1 µM; read-out: Percent Control
T21 construct: purchased Eurofins DiscoverX
Description: as §2

[24] = target: T22, ERBB2 (HER2) (Homo sapiens, UniProt P04626); assay: KINOMEScan; assay type: binding; conditions: read-out: Percent Control
T22 construct: purchased Eurofins DiscoverX (KINOMEScan service)
Description: as §2

T9 sequence (P37023 22-503): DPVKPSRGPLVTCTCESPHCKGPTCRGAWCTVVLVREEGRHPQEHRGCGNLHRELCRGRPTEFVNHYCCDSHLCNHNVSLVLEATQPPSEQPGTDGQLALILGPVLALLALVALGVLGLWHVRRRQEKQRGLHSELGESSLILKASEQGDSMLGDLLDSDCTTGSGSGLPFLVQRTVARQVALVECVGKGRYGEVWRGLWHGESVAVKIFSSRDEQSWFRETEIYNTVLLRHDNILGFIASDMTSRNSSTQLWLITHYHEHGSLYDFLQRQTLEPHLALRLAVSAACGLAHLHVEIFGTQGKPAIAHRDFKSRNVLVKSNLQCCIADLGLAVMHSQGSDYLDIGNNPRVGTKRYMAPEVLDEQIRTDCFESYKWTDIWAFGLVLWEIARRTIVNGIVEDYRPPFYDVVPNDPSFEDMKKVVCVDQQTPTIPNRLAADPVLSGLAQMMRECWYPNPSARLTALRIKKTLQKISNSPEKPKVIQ
T2 sequence (P00519 229-512 limits assumed): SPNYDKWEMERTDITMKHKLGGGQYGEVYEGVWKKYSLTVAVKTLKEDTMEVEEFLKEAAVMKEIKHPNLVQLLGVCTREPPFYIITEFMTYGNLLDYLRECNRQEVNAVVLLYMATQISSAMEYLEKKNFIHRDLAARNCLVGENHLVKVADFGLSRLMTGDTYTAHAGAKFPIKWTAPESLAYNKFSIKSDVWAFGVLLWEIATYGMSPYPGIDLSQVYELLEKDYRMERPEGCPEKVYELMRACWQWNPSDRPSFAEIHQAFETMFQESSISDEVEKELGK
T1 sequence (P00519 229-512 limits assumed): as above
T13 sequence (Q8NFD2 whole entry): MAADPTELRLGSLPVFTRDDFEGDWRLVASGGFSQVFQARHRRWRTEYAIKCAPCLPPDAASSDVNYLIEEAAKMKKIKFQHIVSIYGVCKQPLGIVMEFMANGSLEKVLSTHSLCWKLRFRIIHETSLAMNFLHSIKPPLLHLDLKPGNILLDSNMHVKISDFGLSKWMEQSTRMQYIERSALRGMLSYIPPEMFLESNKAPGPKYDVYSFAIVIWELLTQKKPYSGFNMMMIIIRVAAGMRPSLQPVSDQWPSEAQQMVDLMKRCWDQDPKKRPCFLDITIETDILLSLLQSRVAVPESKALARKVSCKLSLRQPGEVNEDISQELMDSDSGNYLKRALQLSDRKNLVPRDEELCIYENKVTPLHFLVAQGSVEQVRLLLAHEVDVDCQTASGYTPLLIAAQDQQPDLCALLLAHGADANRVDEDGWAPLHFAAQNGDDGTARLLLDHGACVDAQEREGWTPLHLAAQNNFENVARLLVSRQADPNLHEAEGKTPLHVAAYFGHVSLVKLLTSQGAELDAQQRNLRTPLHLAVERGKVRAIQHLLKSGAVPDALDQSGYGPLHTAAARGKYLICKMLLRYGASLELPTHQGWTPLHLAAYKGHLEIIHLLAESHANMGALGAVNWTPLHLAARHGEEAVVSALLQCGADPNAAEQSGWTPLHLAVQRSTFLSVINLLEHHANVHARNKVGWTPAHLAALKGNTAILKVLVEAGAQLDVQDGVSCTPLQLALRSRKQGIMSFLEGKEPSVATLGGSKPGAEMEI
T18 sequence (Q8IWQ3 whole entry): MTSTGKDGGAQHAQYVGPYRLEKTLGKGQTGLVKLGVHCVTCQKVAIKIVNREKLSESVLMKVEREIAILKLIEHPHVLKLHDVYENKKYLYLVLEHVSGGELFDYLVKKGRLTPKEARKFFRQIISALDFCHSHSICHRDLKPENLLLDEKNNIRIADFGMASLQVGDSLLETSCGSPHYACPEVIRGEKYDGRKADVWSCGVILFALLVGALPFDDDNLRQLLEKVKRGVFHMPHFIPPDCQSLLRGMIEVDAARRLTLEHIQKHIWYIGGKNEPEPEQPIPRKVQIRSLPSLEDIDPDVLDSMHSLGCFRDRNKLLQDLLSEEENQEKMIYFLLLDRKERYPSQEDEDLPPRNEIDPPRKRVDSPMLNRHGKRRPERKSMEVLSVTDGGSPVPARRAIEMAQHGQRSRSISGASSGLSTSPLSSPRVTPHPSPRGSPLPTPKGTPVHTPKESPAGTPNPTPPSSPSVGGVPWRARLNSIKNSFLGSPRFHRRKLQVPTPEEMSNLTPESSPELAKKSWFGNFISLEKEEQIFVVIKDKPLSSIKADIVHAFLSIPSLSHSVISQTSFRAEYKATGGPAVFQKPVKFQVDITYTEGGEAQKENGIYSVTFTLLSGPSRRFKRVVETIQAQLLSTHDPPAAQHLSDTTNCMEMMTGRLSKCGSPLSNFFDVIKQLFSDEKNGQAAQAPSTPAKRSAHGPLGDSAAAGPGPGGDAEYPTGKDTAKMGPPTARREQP
T19 sequence (P0C1S8 whole entry): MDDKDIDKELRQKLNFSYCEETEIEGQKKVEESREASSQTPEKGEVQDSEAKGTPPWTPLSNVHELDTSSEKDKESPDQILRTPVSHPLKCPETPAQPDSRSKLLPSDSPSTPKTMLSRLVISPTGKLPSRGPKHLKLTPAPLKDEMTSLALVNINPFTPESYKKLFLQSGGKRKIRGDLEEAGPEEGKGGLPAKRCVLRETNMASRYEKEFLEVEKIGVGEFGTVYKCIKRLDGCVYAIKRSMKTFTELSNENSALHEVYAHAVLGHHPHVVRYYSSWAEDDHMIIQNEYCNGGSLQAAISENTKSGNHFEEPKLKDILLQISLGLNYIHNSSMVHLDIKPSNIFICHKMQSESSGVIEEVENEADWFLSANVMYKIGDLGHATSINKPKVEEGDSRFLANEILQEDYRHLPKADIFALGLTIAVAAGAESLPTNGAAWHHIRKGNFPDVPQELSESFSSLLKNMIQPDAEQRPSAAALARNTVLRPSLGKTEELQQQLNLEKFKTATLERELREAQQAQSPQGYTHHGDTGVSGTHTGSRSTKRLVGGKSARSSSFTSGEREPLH
T8 sequence (P27037 20-513): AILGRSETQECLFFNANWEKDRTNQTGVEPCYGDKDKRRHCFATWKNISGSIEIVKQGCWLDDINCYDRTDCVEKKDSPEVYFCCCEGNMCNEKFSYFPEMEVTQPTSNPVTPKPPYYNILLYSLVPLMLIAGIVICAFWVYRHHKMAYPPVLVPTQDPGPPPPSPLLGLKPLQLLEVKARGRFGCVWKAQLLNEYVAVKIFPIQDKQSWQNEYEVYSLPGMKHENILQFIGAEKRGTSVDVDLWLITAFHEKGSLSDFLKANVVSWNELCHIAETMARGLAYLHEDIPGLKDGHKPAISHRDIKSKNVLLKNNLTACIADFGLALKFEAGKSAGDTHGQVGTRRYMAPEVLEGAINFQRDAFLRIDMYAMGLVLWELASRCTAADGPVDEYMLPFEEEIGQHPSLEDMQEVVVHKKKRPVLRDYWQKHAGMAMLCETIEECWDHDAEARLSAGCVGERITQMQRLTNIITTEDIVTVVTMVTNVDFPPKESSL
T10 sequence (Q8NI60 163-647): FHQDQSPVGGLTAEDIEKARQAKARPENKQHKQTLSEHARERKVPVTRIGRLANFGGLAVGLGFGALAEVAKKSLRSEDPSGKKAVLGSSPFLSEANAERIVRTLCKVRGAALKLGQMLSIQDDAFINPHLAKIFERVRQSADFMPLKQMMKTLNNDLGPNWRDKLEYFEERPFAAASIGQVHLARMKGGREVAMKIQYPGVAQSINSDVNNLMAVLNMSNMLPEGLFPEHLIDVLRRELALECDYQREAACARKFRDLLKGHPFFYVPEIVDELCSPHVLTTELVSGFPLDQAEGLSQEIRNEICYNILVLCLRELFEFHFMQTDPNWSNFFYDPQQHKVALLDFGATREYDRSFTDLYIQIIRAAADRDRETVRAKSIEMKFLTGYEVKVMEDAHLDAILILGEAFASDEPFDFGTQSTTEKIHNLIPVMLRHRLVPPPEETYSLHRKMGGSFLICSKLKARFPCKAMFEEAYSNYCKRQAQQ
T7 sequence (P00519 whole entry F317L): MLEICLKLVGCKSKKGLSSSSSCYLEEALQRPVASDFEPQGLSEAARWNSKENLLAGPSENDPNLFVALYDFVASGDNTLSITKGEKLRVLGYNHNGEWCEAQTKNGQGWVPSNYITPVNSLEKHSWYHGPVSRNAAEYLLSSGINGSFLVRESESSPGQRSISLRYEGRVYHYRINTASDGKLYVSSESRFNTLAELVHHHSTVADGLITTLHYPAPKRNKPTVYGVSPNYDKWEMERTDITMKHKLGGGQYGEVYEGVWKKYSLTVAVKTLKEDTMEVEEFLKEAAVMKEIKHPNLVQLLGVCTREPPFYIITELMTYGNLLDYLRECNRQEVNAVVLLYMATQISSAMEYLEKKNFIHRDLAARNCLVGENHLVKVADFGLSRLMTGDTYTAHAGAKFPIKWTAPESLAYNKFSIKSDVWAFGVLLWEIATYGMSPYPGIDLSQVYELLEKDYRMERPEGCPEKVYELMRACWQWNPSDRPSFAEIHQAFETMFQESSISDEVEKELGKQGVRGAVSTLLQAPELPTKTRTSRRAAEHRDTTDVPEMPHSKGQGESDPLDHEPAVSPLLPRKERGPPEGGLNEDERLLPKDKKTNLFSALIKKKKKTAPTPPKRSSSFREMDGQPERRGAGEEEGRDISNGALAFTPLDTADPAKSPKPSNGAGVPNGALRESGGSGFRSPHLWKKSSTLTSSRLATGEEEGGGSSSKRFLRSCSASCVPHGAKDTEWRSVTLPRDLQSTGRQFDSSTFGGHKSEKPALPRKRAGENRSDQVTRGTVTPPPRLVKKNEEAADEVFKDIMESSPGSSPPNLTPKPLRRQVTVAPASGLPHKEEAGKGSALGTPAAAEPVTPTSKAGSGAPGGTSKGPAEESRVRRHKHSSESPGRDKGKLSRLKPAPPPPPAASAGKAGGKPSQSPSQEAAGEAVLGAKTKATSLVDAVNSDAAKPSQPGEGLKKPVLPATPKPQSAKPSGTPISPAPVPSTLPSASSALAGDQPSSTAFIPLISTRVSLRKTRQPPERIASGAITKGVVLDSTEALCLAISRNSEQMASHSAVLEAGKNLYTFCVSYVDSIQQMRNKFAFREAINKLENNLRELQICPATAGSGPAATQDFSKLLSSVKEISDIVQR

`COc1cc2ncnc(Nc3cccc(Cl)c3F)c2cc1OCCON1CCN(C)CC1` [Compound 9, N-(3-Chloro-2-fluorophenyl)-7-methoxy-6-(2-((4-methylpiperazin-1-yl)oxy)ethoxy)quinazolin-4-amine] showed a pKd [1] of 6.59, a pKd [2] of 6.74 and a pKd [3] of 7.06. The pKd [4] was 7.68, the pKd [5] was 6.96 and the hepatocyte CLint at 2 h, 1 µM ([6]; beagle, dog, hepatocytes) was 13 µL/min/1e6 cells. The “Remaining Percentages” value ([6]; 15 min) was 88.01%, the “Remaining Percentages” value ([6]; 30 min) was 79.61% and the “Remaining Percentages” value ([6]; 60 min) was 68.74%. The “Remaining Percentages” value ([6]; 90 min) was 60.01%, the “Remaining Percentages” value ([6]; 120 min) was 41.31% and the pIC50 [7] was < 4.52. The “share of parent/metabolite after incubation of 9” value [8] was 14.20%, the remaining binding at 1 µM [9] was 16% and the remaining binding at 1 µM [10] was 100%. For the same molecule, the remaining binding at 1 µM [11] was 100%, the remaining binding at 1 µM [12] was 90% and the remaining binding at 1 µM [13] was 68%. For the same molecule, the remaining binding at 1 µM [14] was 100%, the remaining binding at 1 µM [15] was 97% and the remaining binding at 1 µM [16] was 75%. It also gave a remaining binding at 1 µM [17] of 90%, a remaining binding at 1 µM [18] of 79% and a remaining binding at 1 µM [19] of 100%. The remaining binding at 1 µM [20] was 74%, the remaining binding at 1 µM [21] was 100% and the remaining binding at 1 µM [22] was 94%. For the same molecule, the remaining binding at 1 µM [23] was 94% and the remaining binding at 1 µM [24] was 0.45%.
